In publication PMC12466451 (Antibiotics, 2025):

Assay: Surfactin C metabolism study: metabolic stability in liver microsomes with NADPH
Assay type: in vitro ADME, chicken
Settings: for percentage of initial concentration remaining after incubation with microsomes: chicken liver microsomes 0.5 mg/mL, NADPH, 1.0 µM, 37 °C, 120 min; for t1/2 / k (elimination rate constant): chicken liver microsomes; for t1/2: t1/2 = ln(2)/k; for k (elimination rate constant): slope of ln-concentration versus time plot, 0-120 min
Procedure: After determining the presence of surfactin C analogues in F1, BPR-17 and BPR-16, an in vitro metabolism assay was conducted to investigate the bioavailability and stability of these compounds. This study involved incubating the bioactive metabolites with liver microsomes obtained from chickens to predict and evaluate their potential efficacy and bioavailability once digested. The microsomal assay was performed by first harvesting the chicken microsomes from the liver. Once obtained, these were incubated with the surfactin C compounds in the presence of NADPH, which serves as an essential cofactor for cytochrome P450 enzymes. The degradation of surfactin C analogues over time was monitored by measuring their peak areas using LC-MS/MS [29]. Additionally, a positive control compound (verapamil) was used to confirm the metabolic activity of the liver microsomes.
Preparation of microsomes from liver tissue was performed according to the protocols developed by Knights et al. 2016 [45]. Livers from chickens approximately 42 days old were obtained from Golden Cockerel poultry processors (Mount Cotton, QLD, Australia). Immediately after harvesting, the livers were washed in 1.15% KCl in lab grade H2O to remove excess blood and transported to the laboratory on ice for processing. To prepare the microsomes, 10 g of liver tissue was homogenized in buffer (10 mM potassium phosphate, pH 7.4) using an Ultraturrax-style homogeniser with three 30-s bursts, cooling the sample on ice between each burst. The homogenate was then centrifuged at 7000× g for 10 min at 4 °C. The crude pellet was discarded, and the supernatant was further separated by ultracentrifugation at 105,000× g for 60 min at 4 °C. The supernatant was decanted, and the pellet was rinsed with 1 mL of microsome buffer. The rinsing and ultracentrifugation process was repeated twice, and the resulting pellet was resuspended in microsome storage buffer and stored at −80 °C until further use. A Bradford assay was used to determine the concentration of the protein in the sample [46].
The test compounds C13-C1_6 surfactin C (10.0 mM) were prepared in DMSO, and the metabolic stability of test compounds was determined in triplicate in an oscillating water bath (Grant) at 37 °C and 150 RPM [25]. Positive control (verapamil; 0.001 mM) and negative control (without NADPH regeneration system) incubations were conducted concurrently. Tubes containing potassium phosphate buffer (100 mM) at pH 7.4, microsomal protein stock solution (0.5 mg/mL), test compound solution (1.0 µM) and glucose-6-phosphate dehydrogenase (1 IU/mL) were preincubated at 37 °C for 5 min prior to the reaction being initiated by the addition of 25 µL of a 20× stock of an NADPH regeneration system (NRS) containing NADP (1.3 mM). The total incubation volume was 0.5 mL. The mixture was then incubated at 37 °C in an oscillating water bath (Grant) at 150 RPM for 0, 10, 20, 30, 60, and 120 min. At each time point, reactions were terminated by the addition of 150 µL of ice-cold acetonitrile containing cyclosporin A (60 ng/mL) as an internal standard for test compounds or clotrimazole (50 ng/mL) for verapamil. The test tubes were centrifuged at 13,000× g for 5 min, and ~100 µL of supernatant was transferred to polypropylene 96-well plates for LC-MS/MS analysis using a Waters ALLIANCE HPLC system coupled to a Waters Quattro Micro triple quadrupole mass spectrometer (Milford, MA, USA). Chromatographic separation was achieved using a Phenomenex HPLC C18 column (4.6 × 50 mm, 3 µm). Mass spectrometric detection was performed in negative ion multiple reaction monitoring mode with argon as the collision gas. Data acquisition and processing were carried out using MassLynx software (version 4.1, Waters). The half-life (t1/2) of each test compound was calculated using the equation t1/2 = ln(2)/k, where k is the elimination rate constant derived from the slope obtained from the ln-concentration versus time plot.

Substance | percentage of initial concentration remaining after incubation with microsomes | t1/2 [h] | k (elimination rate constant)
C13 surfactin C | approximately 84% | 19.25 | 
C14 surfactin C | ~95% |  | 
C15 surfactin C | ~99% | 14.438 | 0.0008
C16 surfactin C | ~92% | 16.5 | 0.0007
